The source of these data is US20080085893A1, “MATRIX METALLOPROTEASE INHIBITORS” (priority 2006, published 2008).

pIC50: −log10 of the molar value. Where “and” joins values, the source holds several entries; their conditions need not be identical. Identical values can stand only once. Like-named read-outs stand apart in the source and are kept apart here.

Assay type in all cases: biochemical
Experiment [1] addresses T1, human MMP-1 (amino acids 100-262) (Homo sapiens, UniProt P03956).
T1 construct: human MMP-1 (amino acids 100-262); made in house
T1 sequence (P03956 100-262): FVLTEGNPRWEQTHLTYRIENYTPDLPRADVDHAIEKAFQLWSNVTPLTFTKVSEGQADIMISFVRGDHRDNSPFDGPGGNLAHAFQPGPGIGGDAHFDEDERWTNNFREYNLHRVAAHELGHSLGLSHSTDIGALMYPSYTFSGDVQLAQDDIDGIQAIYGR
Description: MMP dose response assay for determining IC50, MMP-1. To be noted: recombinant catalytic domain, fluorescent-quench substrate 100 nM. As for the experimental part:
(§1) MMP Dose Response Assay for Determining IC50
(§2) The following method was used for determining IC50 values of different inhibitor compounds against multiple MMP enzymes. Frozen stocks of recombinantly produced MMPs were prepared in assay buffer (50 mM HEPES pH 7.4, 10 mM CaCl2, 0.05% Brij-35). […] Enzyme concentrations in the assay were determined empirically and set such that proteolytic activity was maintained in a linear range over the time-course of the experiment. […] Each concentration for each test compound was tested in triplicate. MMP enzymes were equilibrated with compounds for 1 hour at room temperature, then a fluorescent-quench substrate (Acetyl-Cys(Eu)-Pro-Leu-Gly-Leu-Lys-(QSY7)-Ala-Arg-amide) was added to a final concentration of 100 nM. […] Data was analyzed by first calculating average background value from wells that contained only substrate, and this value was subtracted from the entire plate. The 100%, or maximum value, was determined by averaging control wells that contained enzyme, substrate and DMSO. For each well, the percent of control was calculated by dividing the well value by the average DMSO value obtained above.

Experiment [2] has as its target T2, human MMP-2 (amino acids 1-660) (Homo sapiens, UniProt P08253).
T2 construct: human MMP-2 (amino acids 1-660); made in house
T2 sequence (P08253 110-660): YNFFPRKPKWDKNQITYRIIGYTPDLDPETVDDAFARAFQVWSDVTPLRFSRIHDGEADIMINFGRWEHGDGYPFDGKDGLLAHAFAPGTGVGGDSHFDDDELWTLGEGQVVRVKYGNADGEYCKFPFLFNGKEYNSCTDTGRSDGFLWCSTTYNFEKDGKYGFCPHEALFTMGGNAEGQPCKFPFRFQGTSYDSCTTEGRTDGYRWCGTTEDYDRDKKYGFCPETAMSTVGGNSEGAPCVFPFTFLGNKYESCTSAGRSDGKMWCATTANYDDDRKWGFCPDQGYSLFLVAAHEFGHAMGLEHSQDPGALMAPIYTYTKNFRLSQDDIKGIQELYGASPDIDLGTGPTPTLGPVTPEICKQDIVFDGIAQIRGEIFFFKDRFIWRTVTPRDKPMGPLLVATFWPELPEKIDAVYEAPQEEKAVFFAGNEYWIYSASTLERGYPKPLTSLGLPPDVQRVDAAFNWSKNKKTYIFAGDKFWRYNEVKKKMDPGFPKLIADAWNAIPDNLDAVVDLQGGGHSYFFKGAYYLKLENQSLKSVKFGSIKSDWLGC
Description: MMP dose response assay for determining IC50, MMP-2. Conditions: recombinant enzyme, fluorescent-quench substrate 100 nM; read-out: MMP-2. As for the experimental part: as §1, §2

Experiment [3] deals with T3, human MMP-9 (amino acids 107-446) (Homo sapiens, UniProt P14780).
T3 construct: human MMP-9 (amino acids 107-446); made in house
T3 sequence (P14780 107-446): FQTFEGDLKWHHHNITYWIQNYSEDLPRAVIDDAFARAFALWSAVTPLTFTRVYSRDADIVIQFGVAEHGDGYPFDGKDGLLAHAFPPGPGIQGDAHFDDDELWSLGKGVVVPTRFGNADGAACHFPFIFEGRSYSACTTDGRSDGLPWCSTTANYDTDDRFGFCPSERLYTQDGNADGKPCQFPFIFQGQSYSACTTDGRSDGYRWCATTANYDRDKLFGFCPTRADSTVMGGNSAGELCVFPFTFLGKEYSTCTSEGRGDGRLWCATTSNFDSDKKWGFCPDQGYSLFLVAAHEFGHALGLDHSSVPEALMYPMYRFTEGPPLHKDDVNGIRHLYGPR
Description: MMP dose response assay for determining IC50, MMP-9. Conditions: for pIC50: recombinant enzyme, fluorescent-quench substrate 100 nM, read-out: MMP-9; for IC50: MMP-9 (nM). As for the experimental part: as §1, §2

For `CS(=O)(=O)N(C[C@H](O)C(=O)NO)c1ccc(Oc2ccc(Cl)cc2)cc1` [Compound 1, N-Hydroxy (2S)-2-hydroxy-3-{N-[4-(4-chlorophenoxy)phenyl], N-methanesulfonylamino}propionamide], the pIC50 in experiment [1] was under 5.00; in experiment [2] it was 7.40 and 7.52; in experiment [3] it was 8.30 and 8.36.

A word on the IC50: it is the midpoint of a concentration-inhibition curve. As for `CO[C@@H](CN(c1ccc(Oc2ccc(C)cc2)cc1)S(C)(=O)=O)C(=O)NO` [Compound 2, N-Hydroxy (2S)-2-methoxy-3-{N-[4-(4-methylphenoxy)phenyl], N-methanesulfonylamino}propionamide], the pIC50 in experiment [1] is under 5.00; in experiment [2], 7.36 and 7.54; in experiment [3] it was 8.38. Moreover, it took 3.73 nM to reach half-maximal inhibition in experiment [3] (IC50).

As to `Cc1ccc(Oc2ccc(N(C[C@H](NC(=O)C(C)C)C(=O)NO)S(C)(=O)=O)cc2)cc1` [Example 4, N-Hydroxy (2S)-3-{N-[4-(4-methylphenoxy)phenyl],N-methanesulfonylamino}-2-(2-propylcarbonylamino)propionamide], the pIC50 in experiment [1] is under 5.00; in experiment [2], 7.28 and 7.06; in experiment [3], 8.31 and 8.22.

Consider `Cc1ccc(Oc2ccc(N(CC(C)(O)C(=O)NO)S(C)(=O)=O)cc2)cc1` (centres unmarked) [Example 6, N-Hydroxy 2-hydroxy-2-methyl-3-{N-[4-(4-methylphenoxy)phenyl],N-methanesulfonylamino}propionamide], for which the pIC50 is 5.25 in experiment [1]; 7.72 and 7.65 and 7.53 and 7.78 and 7.84 in experiment [2]; 8.13 and 8.11 and 8.32 and 8.66 and 8.45 in experiment [3].

Take `CS(=O)(=O)N(C[C@@H](O)C(=O)NO)c1ccc(Oc2ccccc2)cc1` [Example 11, N-Hydroxy (2R)-2-hydroxy-3-[N-(4-phenoxy)phenyl,N-methanesulfonylamino]propionamide]: the pIC50 in experiment [1] is under 5.00; in experiment [2] it was 6.33; in experiment [3] it was 6.98.

As for `CS(=O)(=O)N(C[C@H](O)C(=O)NO)c1ccc(Oc2ccccc2)cc1` [Example 12, N-Hydroxy (2S)-2-hydroxy-3-[N-(4-phenoxy)phenyl,N-methanesulfonylamino]propionamide], the pIC50 in experiment [1] is under 5.00; in experiment [2] it was 6.51 and 6.72; in experiment [3], 7.30 and 7.53.

On to `CS(=O)(=O)N(C[C@@H](O)C(=O)NO)c1ccc(Oc2ccc(Cl)cc2)cc1` [Example 13, N-Hydroxy (2R)-2-hydroxy-3-{N-[4-(4-chlorophenoxy)phenyl],N-methanesulfonylamino}propionamide], for which the pIC50 in experiment [1] is 5.01 and 5.27; in experiment [2], 7.62 and 7.35; in experiment [3], 8.25 and 8.15.

On to `Cc1ccc(Oc2ccc(N(C[C@H](O)C(=O)NO)S(=O)(=O)Cc3ccccc3)cc2)cc1` [Example 14, N-Hydroxy (2S)-2-hydroxy-3-{N-[4-(4-methylphenoxy)phenyl],N-phenylmethylsulfonylamino}propionamide], for which the pIC50 was under 5.00 in experiment [1], 6.24 in experiment [2] and 7.03 in experiment [3].

On to `CCCS(=O)(=O)N(C[C@H](O)C(=O)NO)c1ccc(Oc2ccc(C)cc2)cc1` [Example 15, N-Hydroxy (2S)-2-hydroxy-3-{N-[4-(4-methylphenoxy)phenyl],N-(1-propyl)sulfonylamino}propionamide], for which the pIC50 in experiment [1] was under 5.00; in experiment [2], 6.29; in experiment [3], 6.91.

Take `Cc1ccc(Oc2ccc(N(C[C@H](O)C(=O)NO)S(=O)(=O)C(C)C)cc2)cc1` [Example 16, N-Hydroxy (2S)-2-hydroxy-3-{N-[4-(4-methylphenoxy)phenyl],N-(2-propyl)sulfonylamino}propionamide]: the pIC50 in experiment [1] is under 5.00; in experiment [3], 6.54.

Regarding `CO[C@H](CN(c1ccc(Oc2ccc(C)cc2)cc1)S(C)(=O)=O)C(=O)NO` [Example 17, N-Hydroxy (2R)-2-methoxy-3-{N-[4-(4-methylphenoxy)phenyl],N-methanesulfonylamino}propionamide], the pIC50 in experiment [1] is under 5.00; in experiment [2] it was 6.99. For the same compound, 12.7 nM corresponded to half-maximal inhibition in experiment [3] (IC50).

For the compound `Cc1ccc(Oc2ccc(N(C[C@H](NC(C)C)C(=O)NO)S(C)(=O)=O)cc2)cc1` [Example 18, N-Hydroxy (2S)-3-{N-[4-(4-methylphenoxy)phenyl],N-methanesulfonylamino}-2-[(2-propyl)amino]propionamide], the pIC50 in experiment [1] is < 5.00 and 5.02 and 5.38 and 5.08 and 5.16; in experiment [2], 8.44 and 8.60 and 8.49 and 8.29 and 8.26 and 8.38; in experiment [3], 9.21 and 9.12 and 9.52 and 9.39 and 9.35.

Regarding `Cc1ccc(Oc2ccc(N(C[C@H](O)C(=O)NO)S(=O)(=O)N(C)C)cc2)cc1` [Example 19, N-Hydroxy (2S)-2-hydroxy-3-{N-[4-(4-methylphenoxy)phenyl],N-(dimethylamino)sulfonylamino}propionamide], the pIC50 in experiment [1] is under 5.00; in experiment [3], 6.61.

For `CCS(=O)(=O)N(C[C@H](O)C(=O)NO)c1ccc(Oc2ccc(C)cc2)cc1` [Example 20, N-Hydroxy (2S)-2-hydroxy-3-{N-[4-(4-methylphenoxy)phenyl],N-ethylsulfonylamino}propionamide], the pIC50 was under 5.00 in experiment [1]; 6.94 and 6.77 in experiment [2]; 7.67 and 7.47 in experiment [3].

Consider `Cc1ccc(Oc2ccc(N(C[C@H](O)C(=O)NO)S(=O)(=O)c3ccccc3)cc2)cc1` [Example 21, N-Hydroxy (2S)-2-hydroxy-3-{N-[4-(4-methylphenoxy)phenyl],N-phenylsulfonylamino}propionamide], for which the pIC50 in experiment [1] was under 5.00; in experiment [3], 6.46.

Turning to `Cc1ccc(Oc2ccc(N(C[C@@H](OCc3ccccc3)C(=O)NO)S(C)(=O)=O)cc2)cc1` [Example 22, N-Hydroxy (2R)-2-benzyloxy-3-{N-[4-(4-methylphenoxy)phenyl],N-methanesulfonylamino}propionamide], the pIC50 is under 5.00 in experiment [1]; 6.68 and 6.47 in experiment [2]; 7.97 and 7.38 in experiment [3].

On to `Cc1ccc(Oc2ccc(N(C[C@H](OCc3ccccc3)C(=O)NO)S(C)(=O)=O)cc2)cc1` [Example 23, N-Hydroxy (2S)-2-benzyloxy-3-{N-[4-(4-methylphenoxy)phenyl],N-methanesulfonylamino}propionamide], for which the pIC50 was under 5.00 in experiment [1]; 7.25 and 7.04 in experiment [2]; 8.59 and 8.04 in experiment [3].

Regarding `Cc1ccc(Oc2ccc(N(C[C@@H](NC(C)C)C(=O)NO)S(C)(=O)=O)cc2)cc1` [Example 24, N-Hydroxy (2R)-3-{N-[4-(4-methylphenoxy)phenyl],N-methanesulfonylamino}-2-(2-propyl)aminopropionamide], the pIC50 in experiment [1] is under 5.00; in experiment [2], 6.73 and 6.77; in experiment [3], 7.42 and 7.60.

As to `Cc1ccc(Oc2ccc(N(C[C@H](NCc3ccccc3)C(=O)NO)S(C)(=O)=O)cc2)cc1` [Example 25, N-Hydroxy (2S)-2-benzylamino-3-{N-[4-(4-methylphenoxy)phenyl],N-methanesulfonylamino}propionamide], the values for the pIC50 in experiment [1], in experiment [2] and in experiment [3] were under 5.00, 6.70 and 8.15, respectively.

Consider `Cc1ccc(Oc2ccc(N(C[C@@H](NCc3ccccc3)C(=O)NO)S(C)(=O)=O)cc2)cc1` [Example 26, N-Hydroxy (2R)-2-benzylamino-3-{N-[4-(4-methylphenoxy)phenyl],N-methanesulfonylamino}propionamide], for which the pIC50 is under 5.00 in experiment [1], 7.26 in experiment [2] and 7.03 in experiment [3].

As for `Cc1ccc(Oc2ccc(N(C[C@H](Nc3ccccc3)C(=O)NO)S(C)(=O)=O)cc2)cc1` [Example 30, N-Hydroxy (2S)-3-{N-[4-(4-methylphenoxy)phenyl],N-methanesulfonylamino}-2-phenylaminopropionamide], the pIC50 is < 5.00 and 5.21 and 5.06 and 5.14 and 5.13 in experiment [1]; 7.73 and 7.81 and 7.82 and 8.28 and 8.02 and 8.00 and 8.10 in experiment [2].

Consider `Cc1ccc(C#Cc2ccc(N(C[C@H](O)C(=O)NO)S(C)(=O)=O)cc2)cc1` [Example 63, N-Hydroxy (2S)-2-hydroxy-3-{N-[4-(4-methylphenylacetylene)phenyl],N-methanesulfonylamino}propionamide], for which the pIC50 in experiment [1] is under 5.00; in experiment [2] it was 7.55 and 7.18.
